13 compounds from US20240092761A1, “QUINAZOLINE COMPOUNDS AND METHODS OF USE” (IAMBIC THERAPEUTICS, INC., priority 2022, published 2024) can be followed below.

Some results are limits rather than exact numbers.

One assay addresses CDK1/Cyclin B1 (Homo sapiens (Human), UniProt P06493). In words: CDK1/Cyclin B1 ADP-Glo Kinase Assay. The conditions noted are these: 80 uM ATP. It counts as biochemical. The method in brief:
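CDK1/cyclin B1 (4.917 nM) preincubated 30 min with inhibitor (2% DMSO), then 80 µM ATP (Km 78.6 µM) and 0.75 µM substrate added; 90 min, room temperature, pH 7.5. ADP measured by ADP-Glo luminescence; IC50 from 4-parameter fit.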
On the technique in general: In ADP-Glo the light output rises with the ADP produced.

The next assay relates to OVCAR-3 cells. In words: Cell Growth Inhibition, OVCAR-3 (CellTiterGlo, 6 days). It counts as cell-based. Conditions: OVCAR-3, 6-day treatment, CellTiterGlo 2.0. The method in brief:
(§1)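 MCF-7 and OVCAR-3 cells (RPMI, 10% FBS) were seeded at 500 cells/well onto compound, typically 10–10,000 nM in half-log dilutions. Growth proceeded 6 days at 37 °C, then CellTiterGlo luminescence was read. % inhibition was taken versus control, and IC50 came from a four-parameter variable-slope fit.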
A general note: In ATP-based viability assays light output follows the ATP content of the culture.

Another assay has as its system MCF-7 cells. Kind of assay: Cell Growth Inhibition, MCF-7 (CellTiterGlo, 6 days). Type of assay: cell-based. The conditions noted are these: MCF-7, 6-day treatment, CellTiterGlo 2.0. The method in brief:
as §1

Assay [1] has as its target CDK2/Cyclin E1 full length (Homo sapiens (Human), UniProt P24941). Kind of assay: CDK2/Cyclin E1 Full Length ADP-Glo Kinase Assay. Type of assay: biochemical. The conditions noted are these: 20 uM ATP, read-out: CDK2/ CyclinE1 IC50. The method in brief: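 Full-length human CDK2/Cyclin E1 (0.328 nM) pre-incubated 30 min with inhibitor at RT, then reacted 90 min at RT with 20 uM ATP (Km 64.78 uM) and 0.75 uM substrate in pH 7.5 HEPES, 2% DMSO. ADP measured by ADP-Glo luminescence; IC50 from 4-parameter fit of fractional velocity.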

The next assay addresses CDK6/Cyclin D3 (Homo sapiens (Human), UniProt Q00534). In words: CDK6/Cyclin D3 ADP-Glo Kinase Assay. Type of assay: biochemical. Conditions: 100 uM ATP, read-out: CDK6/ CyclinD3 IC50. The essentials: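 Recombinant human CDK6/Cyclin D3 pre-incubated 30 min with inhibitor at room temperature, then reaction started with ATP/substrate and run 90 min at room temperature. ADP formed detected by ADP-Glo luminescence; IC50 from a 4-parameter fit of fractional velocity versus inhibitor concentration.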

The target in a further assay is CDK4/Cyclin D1 (Homo sapiens (Human), UniProt P11802). Kind of assay: CDK4/Cyclin D1 CHEF Assay (AQT0258 peptide). It counts as biochemical. Conditions: 200 uM ATP, read-out: CDK4/ CyclinD1 AQT IC50. The essentials:
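CDK4/Cyclin D1 (2.5 nM) phosphorylating 10 uM Sox-labelled peptide AQT0258 with 200 uM ATP (Km 195.2 uM), 10 mM MgCl2, 2% DMSO, 54 mM HEPES pH 7.5. Enzyme and inhibitor pre-incubated 30 min, reaction 3 hrs at 22° C.; CHEF fluorescence (ex 360/em 485 nm), IC50 from fractional velocity, 4-parameter fit.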

CDK4/Cyclin D1, sequence (P11802 whole entry): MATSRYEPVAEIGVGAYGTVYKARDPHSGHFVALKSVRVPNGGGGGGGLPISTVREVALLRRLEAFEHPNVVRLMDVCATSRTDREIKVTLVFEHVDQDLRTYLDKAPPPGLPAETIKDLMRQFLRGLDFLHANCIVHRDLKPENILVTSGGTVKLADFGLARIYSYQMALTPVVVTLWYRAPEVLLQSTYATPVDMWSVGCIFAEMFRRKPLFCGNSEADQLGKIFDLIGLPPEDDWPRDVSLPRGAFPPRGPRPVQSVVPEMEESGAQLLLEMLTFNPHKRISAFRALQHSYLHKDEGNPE
CDK4/Cyclin D1, sequence (P24385 whole entry partner): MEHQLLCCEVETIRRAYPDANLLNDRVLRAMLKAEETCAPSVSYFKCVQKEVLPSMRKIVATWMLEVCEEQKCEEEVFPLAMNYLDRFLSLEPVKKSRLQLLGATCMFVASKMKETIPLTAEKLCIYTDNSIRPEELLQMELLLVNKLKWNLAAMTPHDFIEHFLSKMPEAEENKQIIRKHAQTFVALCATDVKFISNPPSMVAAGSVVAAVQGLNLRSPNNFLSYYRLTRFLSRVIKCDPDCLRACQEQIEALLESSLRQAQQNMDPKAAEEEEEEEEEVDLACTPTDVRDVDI
CDK6/Cyclin D3, sequence (Q00534 whole entry): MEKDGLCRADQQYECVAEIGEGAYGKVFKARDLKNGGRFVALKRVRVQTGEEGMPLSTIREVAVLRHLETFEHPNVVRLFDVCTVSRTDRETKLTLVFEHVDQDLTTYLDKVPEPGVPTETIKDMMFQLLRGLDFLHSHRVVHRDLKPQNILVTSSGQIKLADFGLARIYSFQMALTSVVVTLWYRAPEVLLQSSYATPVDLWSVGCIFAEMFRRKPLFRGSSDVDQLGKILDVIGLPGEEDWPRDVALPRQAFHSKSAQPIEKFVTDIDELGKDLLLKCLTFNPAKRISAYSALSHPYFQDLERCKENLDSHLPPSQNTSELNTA
CDK6/Cyclin D3, sequence (P30281 whole entry partner): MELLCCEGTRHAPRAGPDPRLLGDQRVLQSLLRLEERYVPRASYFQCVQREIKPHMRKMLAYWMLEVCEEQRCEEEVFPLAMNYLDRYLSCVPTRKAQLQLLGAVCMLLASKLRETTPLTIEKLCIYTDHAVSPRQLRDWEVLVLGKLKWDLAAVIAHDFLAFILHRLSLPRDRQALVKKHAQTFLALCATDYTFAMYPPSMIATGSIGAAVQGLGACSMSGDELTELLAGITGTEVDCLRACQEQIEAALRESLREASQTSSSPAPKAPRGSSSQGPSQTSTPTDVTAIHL
CDK1/Cyclin B1, sequence (P06493 whole entry): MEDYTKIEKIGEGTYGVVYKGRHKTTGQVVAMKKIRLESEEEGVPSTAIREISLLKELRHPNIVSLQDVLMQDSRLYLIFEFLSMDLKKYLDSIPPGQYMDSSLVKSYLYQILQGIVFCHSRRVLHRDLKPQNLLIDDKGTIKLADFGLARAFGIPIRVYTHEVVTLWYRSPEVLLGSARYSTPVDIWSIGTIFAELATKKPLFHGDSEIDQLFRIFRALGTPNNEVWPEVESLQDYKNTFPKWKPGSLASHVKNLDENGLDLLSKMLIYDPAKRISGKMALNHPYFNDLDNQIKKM
CDK1/Cyclin B1, sequence (P14635 whole entry partner): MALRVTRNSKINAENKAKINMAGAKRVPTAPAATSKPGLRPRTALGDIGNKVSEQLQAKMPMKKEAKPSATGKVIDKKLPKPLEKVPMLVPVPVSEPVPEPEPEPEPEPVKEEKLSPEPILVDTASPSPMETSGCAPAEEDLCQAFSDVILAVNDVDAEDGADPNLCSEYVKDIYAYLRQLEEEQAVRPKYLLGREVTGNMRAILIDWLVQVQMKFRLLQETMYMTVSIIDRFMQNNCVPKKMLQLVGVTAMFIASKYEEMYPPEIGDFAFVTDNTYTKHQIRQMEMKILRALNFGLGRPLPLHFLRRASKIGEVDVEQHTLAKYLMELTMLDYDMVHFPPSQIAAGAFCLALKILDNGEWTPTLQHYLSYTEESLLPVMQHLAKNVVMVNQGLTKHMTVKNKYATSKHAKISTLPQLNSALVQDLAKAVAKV

Take `O=S(=O)(C1CC1)N1CCC(Nc2ncc3cc(C(F)F)cc(N4CC5(C4)CN(C4CC4)C5)c3n2)CC1` [Example 78, 8-(6-cyclopropyl-2,6-diazaspiro[3.3]heptan-2-yl)-N-(1-(cyclopropylsulfonyl)piperidin-4-yl)-6-(difluoromethyl)quinazolin-2-amine]: the IC50 is 0.2 to 0.5 µM on CDK1/Cyclin B1; greater than 2 µM with OVCAR-3 cells (Homo sapiens, 144 h); 0.5 to 2 µM in the assay on MCF-7 cells (Homo sapiens, MCF7, 144 h); less than 0.2 µM in assay [1]; less than 0.2 µM at CDK6/Cyclin D3; less than 0.2 µM at CDK4/Cyclin D1.
As for `O=S(=O)(c1ccc(C(F)(F)F)nc1)N1CCC(Nc2ncc3cc(C(F)F)cc(N4CC5(CCNC5)C4)c3n2)CC1` [Example 97, 6-(difluoromethyl)-8-(2,6-diazaspiro[3.4]octan-2-yl)-N-(1-((6-(trifluoromethyl)pyridin-3-yl)sulfonyl)piperidin-4-yl)quinazolin-2-amine], the IC50 was less than 0.2 µM against CDK1/Cyclin B1; less than 0.2 µM in the assay with OVCAR-3 cells (Homo sapiens, 144 h); 0.2 to 0.5 µM in the assay with MCF-7 cells (Homo sapiens, MCF7, 144 h); less than 0.2 µM in assay [1]; less than 0.2 µM on CDK6/Cyclin D3; less than 0.2 µM on CDK4/Cyclin D1.
On to `Cn1ncc2cc(Nc3ncc4cc(C(F)F)cc(N5CC6(CCNC6)C5)c4n3)ccc21` [Example 75, 6-(difluoromethyl)-N-(1-methyl-1H-indazol-5-yl)-8-(2,6-diazaspiro[3.4]octan-2-yl)quinazolin-2-amine], for which the IC50 is less than 0.2 µM against CDK1/Cyclin B1; 0.5 to 2 µM in the assay on OVCAR-3 cells (Homo sapiens, 144 h); 0.5 to 2 µM in the assay on MCF-7 cells (Homo sapiens, MCF7, 144 h); less than 0.2 µM in assay [1]; less than 0.2 µM at CDK6/Cyclin D3; less than 0.2 µM on CDK4/Cyclin D1.
With `CN1CC2(CCN(c3cc(C(F)F)cc4cnc(Nc5ccc6c(c5)CN(S(C)(=O)=O)C6)nc34)C2)C1` [Example 73, 6-(difluoromethyl)-8-(2-methyl-2,6-diazaspiro[3.4]octan-6-yl)-(methylsulfonyl)N-(2-isoindolin-5-yl)quinazolin-2amine], the IC50 at CDK1/Cyclin B1 was less than 0.2 µM; in the assay with OVCAR-3 cells, 0.5 to 2 µM; in the assay on MCF-7 cells, 0.2 to 0.5 µM; in assay [1] it was less than 0.2 µM; at CDK6/Cyclin D3, less than 0.2 µM; on CDK4/Cyclin D1, less than 0.2 µM.
`CS(=O)(=O)N1Cc2ccc(Nc3ncc4cc(C(F)F)cc(N5CC6(C5)CN(C5CC5)C6)c4n3)cc2C1` [Example 72, 8-(6-cyclopropyl-2,6-diazaspiro[3.3]heptan-2-yl)-6-(difluoromethyl)-N-(2-(methylsulfonyl)isoindolin-5-yl)quinazolin-2-amine]: the IC50 at CDK1/Cyclin B1 is less than 0.2 µM; with OVCAR-3 cells (Homo sapiens, 144 h), greater than 2 µM; in the assay on MCF-7 cells (Homo sapiens, MCF7, 144 h), 0.5 to 2 µM; in assay [1], less than 0.2 µM; on CDK6/Cyclin D3, less than 0.2 µM; at CDK4/Cyclin D1, less than 0.2 µM.
On to `O=S(=O)(C1CC1)N1CCC(Nc2ncc3cc(C(F)F)cc(C4CC5(C4)CN(CC(F)F)C5)c3n2)CC1` [Example 90, N-(1-(cyclopropylsulfonyl)piperidin-4-yl)-8-(2-(2,2-difluoroethyl)-2-azaspiro[3.3]heptan-6-yl)-6-(difluoromethyl)quinazolin-2-amine], for which the IC50 is less than 0.2 µM at CDK1/Cyclin B1; 0.2 to 0.5 µM in the assay with OVCAR-3 cells (Homo sapiens, 144 h); 0.5 to 2 µM in the assay with MCF-7 cells (Homo sapiens, MCF7, 144 h); less than 0.2 µM in assay [1]; less than 0.2 µM on CDK6/Cyclin D3; less than 0.2 µM at CDK4/Cyclin D1.
As for `CN1Cc2cc(F)c(Nc3ncc4cc(C(F)F)cc(N5CC6(CNC6)C5)c4n3)cc2C1` [Example 61, 6-(difluoromethyl)-N-(6-fluoro-2-methylisoindolin-5-yl)-8-(2,6-diazaspiro[3.3]heptan-2-yl)quinazolin-2-amine], the IC50 on CDK1/Cyclin B1 was 0.5 to 2 µM; in the assay on OVCAR-3 cells (Homo sapiens, 144 h), greater than 2 µM; with MCF-7 cells (Homo sapiens, MCF7, 144 h), greater than 2 µM; in assay [1] it was less than 0.2 µM; at CDK6/Cyclin D3 it was 0.5 to 2 µM; on CDK4/Cyclin D1, 0.2 to 0.5 µM.
With `CS(=O)(=O)N1CCC(Nc2ncc3cc(C(F)(F)F)cc(C4CC(O)(C5CC5)C4)c3n2)CC1` (stereo not drawn) [Example 114, 1-cyclopropyl-3-(2-((1-(methylsulfonyl)piperidin-4-yl)amino)-6-(trifluoromethyl)quinazolin-8-yl)cyclobutan-1-ol], the IC50 on CDK1/Cyclin B1 was less than 0.2 µM; in the assay with OVCAR-3 cells (Homo sapiens, 144 h) it was greater than 2 µM; in the assay with MCF-7 cells (Homo sapiens, MCF7, 144 h), greater than 2 µM; in assay [1], less than 0.2 µM; on CDK6/Cyclin D3 it was less than 0.2 µM; at CDK4/Cyclin D1, less than 0.2 µM.
Turning to `CS(=O)(=O)N1CCC(Nc2ncc3cc(C(F)F)cc(N4CC5(C4)CN(C4CC4)C5)c3n2)CC1` [Example 69, 8-(6-cyclopropyl-2,6-diazaspiro[3.3]heptan-2-yl)-6-(difluoromethyl)-N-(1-(methylsulfonyl)piperidin-4-yl)quinazolin-2-amine], the IC50 at CDK1/Cyclin B1 is 0.2 to 0.5 µM; in the assay with OVCAR-3 cells (Homo sapiens, 144 h), 0.5 to 2 µM; with MCF-7 cells (Homo sapiens, MCF7, 144 h) it was 0.2 to 0.5 µM; in assay [1], less than 0.2 µM; at CDK6/Cyclin D3, less than 0.2 µM; at CDK4/Cyclin D1, less than 0.2 µM.
With `CC1(S(=O)(=O)N2CCC(Nc3ncc4cc(C(F)F)cc(N5CC6(CCNC6)C5)c4n3)CC2)CC1` [Example 87, 6-(difluoromethyl)-N-(1-((1-methylcyclopropyl)sulfonyl)piperidin-4-yl)-8-(2,6-diazaspiro[3.4]octan-2-yl)quinazolin-2-amine], the IC50 was less than 0.2 µM against CDK1/Cyclin B1; 0.2 to 0.5 µM in the assay on OVCAR-3 cells (Homo sapiens, 144 h); 0.5 to 2 µM with MCF-7 cells (Homo sapiens, MCF7, 144 h); less than 0.2 µM in assay [1]; less than 0.2 µM on CDK6/Cyclin D3; less than 0.2 µM at CDK4/Cyclin D1.
With `CS(=O)(=O)N1CCC(Nc2ncc3cc(C(F)F)cc(N4CC5(CCNCC5(F)F)C4)c3n2)CC1` [Example 94, 8-(5,5-difluoro-2,7-diazaspiro[3.5]nonan-2-yl)-6-(difluoromethyl)-N-(1-(methylsulfonyl)piperidin-4-yl)quinazolin-2-amine], the IC50 on CDK1/Cyclin B1 was less than 0.2 µM; with OVCAR-3 cells (Homo sapiens, 144 h) it was 0.5 to 2 µM; with MCF-7 cells (Homo sapiens, MCF7, 144 h) it was 0.5 to 2 µM; in assay [1], less than 0.2 µM; at CDK6/Cyclin D3, less than 0.2 µM; on CDK4/Cyclin D1, less than 0.2 µM.
In the case of `O=S(=O)(N1CCC(Nc2ncc3cc(C(F)F)cc(N4CC5(CCNC5)C4)c3n2)CC1)C1(C(F)F)CC1` [Example 93, 6-(difluoromethyl)-N-(1-((1-(difluoromethyl)cyclopropyl)sulfonyl)piperidin-4-yl)-8-(2,6-diazaspiro[3.4]octan-2-yl)quinazolin-2-amine], the IC50 is less than 0.2 µM against CDK1/Cyclin B1; less than 0.2 µM in the assay with OVCAR-3 cells (Homo sapiens, 144 h); 0.2 to 0.5 µM in the assay on MCF-7 cells (Homo sapiens, MCF7, 144 h); less than 0.2 µM in assay [1]; less than 0.2 µM at CDK6/Cyclin D3; less than 0.2 µM at CDK4/Cyclin D1.
For `CS(=O)(=O)N1CCC(Nc2ncc3cc(C(F)F)cc(N4CC5(CCNC5)C4)c3n2)CC1` [Example 63, 6-(difluoromethyl)-N-(1-(methylsulfonyl)piperidin-4-yl)-8-(2,6-diazaspiro[3.4]octan-2-yl)quinazolin-2-amine], the IC50 on CDK1/Cyclin B1 was less than 0.2 µM; in the assay on OVCAR-3 cells (Homo sapiens, 144 h) it was 0.5 to 2 µM; in the assay with MCF-7 cells (Homo sapiens, MCF7, 144 h), 0.5 to 2 µM; in assay [1], less than 0.2 µM; on CDK6/Cyclin D3 it was less than 0.2 µM; at CDK4/Cyclin D1 it was less than 0.2 µM.
